Reference: patent US10017520B2, “Myc modulators and uses thereof” (Massachusetts Institute of Technology, priority 2014, dated 2018)

System: c-Myc
Assay: c-Myc reporter gene assay (Qiagen) in HEK293T cells
Assay type: cell-based
Conditions: treatment 16 hours, Firefly/Renilla ratio
Protocol: Compound 1's activity against Myc was measured as a Firefly/Renilla ratio, using the Myc reporter assay (Qiagen) in HEK293T cells after treatment with compound 1 for 16 hours. Results are expressed as a mean+/−SD (n=3). SD: standard deviation.
Select compounds described herein that were SMM assay positives were evaluated in several versions of a c-Myc reporter gene assay, including a commercial assay from Qiagen. The compounds' activities against c-Myc were measured as a Firefly/Renilla ratio, using the Myc reporter assay (Qiagen) in HEK293T cells after treatment with the compounds for 16 hours.

Structure (SMILES)	IC50 (Homo sapiens, HEK-293T, 16 h)	also measured
O=C1S/C(=C\c2ccc(Sc3nc4ccccc4[nH]3)o2)C(=O)N1c1ccccc1 [Compound 35]	11.9 µM	–
CC(/C=C1\SC(=O)N(C(C)C)C1=O)=C\c1ccccc1 [Compound 37]	> 100 µM	–
COC(=O)CN1C(=O)S/C(=C\c2ccc(Sc3nc4ccccc4[nH]3)o2)C1=O [Compound 15, (Z)-methyl 2-(5-((5-((1H-benzo[d]imidazol-2-yl)thio)furan-2-yl)methylene)-2,4-dioxothiazolidin-3-yl)acetate]	3.26 µM	–
CC(C)N1C(=O)S/C(=C\c2ccc(Sc3nc4ccc(OC(F)(F)F)cc4[nH]3)o2)C1=O [Compound 56, (Z)-3-isopropyl-5-((5-((6-(trifluoromethoxy)-1H-benzo[d]imidazol-2-yl)thio)furan-2-yl)methylene)thiazolidine-2,4-dione]	0.44 µM	–
CC(C)N1C(=O)S/C(=C\c2ccc(Sc3nc4ccccc4[nH]3)cc2)C1=O [Compound 64, (Z)-5-(4-((1H-benzo[d]imidazol-2-yl)thio)benzylidene)-3-isopropylthiazolidine-2,4-dione]	1.82 µM	–
CC(C)N1C(=O)S/C(=C\c2ccc(Sc3nc4ccc([N+](=O)[O-])cc4[nH]3)o2)C1=O [Compound 57, (Z)-3-isopropyl-5-((5-((6-nitro-1H-benzo[d]imidazol-2-yl)thio)furan-2-yl)methylene)thiazolidine-2,4-dione]	0.36 µM	–
O=C(Nc1ccccc1)c1ccc(Sc2nc3ccccc3[nH]2)o1 [Compound 42, 5-((1H-benzo[d]imidazol-2-yl)thio)-N-phenylfuran-2-carboxamide]	3.32 µM	–
O=C(CN1C(=O)S/C(=C\c2ccc(Sc3nc4ccccc4[nH]3)o2)C1=O)N1CCN(c2ccccc2)CC1 [Compound 34]	7.01 µM	–
O=C(NCCCN1C(=O)S/C(=C\c2ccc(Sc3nc4ccccc4[nH]3)o2)C1=O)Nc1ccccc1 [Compound 20, (Z)-1-(3-(5-((5-((1H-benzo[d]imidazol-2-yl)thio)furan-2-yl)methylene)-2,4-dioxothiazolidin-3-yl)propyl)-3-phenylurea]	1.22 µM	–
O=C(O)c1ccc(Sc2nc3ccccc3[nH]2)o1 [Compound 41, 5-((1H-benzo[d]imidazol-2-yl)thio)furan-2-carboxylic acid]	–	c-Myc reporter assay IC50: non active
CC(C)N1C(=O)S/C(=C\c2ccc(Sc3ncc[nH]3)o2)C1=O [Compound 16, (Z)-5-((5-((1H-imidazol-2-yl)thio)furan-2-yl)methylene)-3-isopropylthiazolidine-2,4-dione]	20.8 µM	–
Cc1ccc(Sc2ccc(/C=C3\SC(=O)N(C(C)C)C3=O)o2)cc1 [Compound 39]	> 100 µM	–
c1ccc(NCc2ccc(Sc3nc4ccccc4[nH]3)o2)cc1 [Compound 45, N-((5-((1H-benzo[d]imidazol-2-yl)thio)furan-2-yl)methyl)aniline]	4.66 µM	–
CCN1CCN(Cc2ccc(Sc3nc4ccccc4[nH]3)o2)CC1 [Compound 48, 2-((5-((4-ethylpiperazin-1-yl)methyl)furan-2-yl)thio)-1H-benzo[d]imidazole]	10.2 µM	–
CC(C)N1C(=O)S/C(=C\c2cc3ccc(Sc4nc5ccccc5[nH]4)cc3o2)C1=O [Compound 68, (Z)-5-((6-((1H-benzo[d]imidazol-2-yl)thio)benzofuran-2-yl)methylene)-3-isopropylthiazolidine-2,4-dione]	0.54 µM	–
CC(C)N1C(=O)S/C(=C\c2cccc(Oc3nc4ccccc4[nH]3)c2)C1=O [Compound 65, (Z)-5-(3-((1H-benzo[d]imidazol-2-yl)oxy)benzylidene)-3-isopropylthiazolidine-2,4-dione]	0.99 µM	–
COC(=O)c1ccc2nc(Sc3ccc(/C=C4\SC(=O)N(C(C)C)C4=O)o3)[nH]c2c1 [Compound 63, (Z)-methyl 2-((5-((3-isopropyl-2,4-dioxothiazolidin-5-ylidene)methyl)furan-2-yl)thio)-1H-benzo[d]imidazole-6-carboxylate]	1.49 µM	–
NCCCN1C(=O)S/C(=C\c2ccc(Sc3nc4ccccc4[nH]3)o2)C1=O [Compound 19, (Z)-5-((5-((1H-benzo[d]imidazol-2-yl)thio)furan-2-yl)methylene)-3-(3-aminopropyl)thiazolidine-2,4-dione 2,2,2-trifluoroacetate]	7.3 µM	IC50: 6.52 µM
CC(C)N1C(=O)S/C(=C\c2ccc(Sc3ccccn3)o2)C1=O [Compound 17, (Z)-3-isopropyl-5-((5-(pyridin-2-ylthio)furan-2-yl)methylene)thiazolidine-2,4-dione]	7.67 µM	–
CC(C)(C)OC(=O)CN1C(=O)S/C(=C\c2ccc(Sc3nc4ccccc4[nH]3)o2)C1=O [Compound 14, (Z)-tert-butyl 2-(5-((5-((1H-benzo[d]imidazol-2-yl)thio)furan-2-yl)methylene)-2,4-dioxothiazolidin-3-yl)acetate]	1.96 µM	–
O=C(c1ccc(Sc2nc3ccccc3[nH]2)o1)N1CCOCC1 [Compound 44, (5-((1H-benzo[d]imidazol-2-yl)thio)furan-2-yl)(morpholino)methanone]	–	c-Myc reporter assay IC50: non active

Structure (SMILES)	IC50 (Homo sapiens, HEK-293T, 16 h)	also measured
COC(=O)C(C)N1C(=O)S/C(=C\C=C\c2ccco2)C1=O (stereo not drawn) [Compound 38]	> 100 µM	–
COC(=O)c1ccc(Sc2nc3ccccc3[nH]2)o1 [Compound 51, Methyl 5-((1H-benzo[d]imidazol-2-yl)thio)furan-2-carboxylate]	–	c-Myc reporter assay IC50: non active
CC(C)NC(=O)c1ccc(Sc2nc3ccccc3[nH]2)o1 [Compound 43, 5-((1H-benzo[d]imidazol-2-yl)thio)-N-isopropylfuran-2-carboxamide]	7.9 µM	–
c1ccc2[nH]c(Sc3ccc(CN4CCOCC4)o3)nc2c1 [Compound 47, 4-((5-((1H-benzo[d]imidazol-2-yl)thio)furan-2-yl)methyl)morpholine]	32.9 µM	–
CCC(C)N1C(=O)S/C(=C\c2ccc(Sc3nc4ccccc4[nH]3)o2)C1=O (stereo not drawn) [Compound 31]	2.22 µM	–
CN(C)Cc1ccc(Sc2nc3ccccc3[nH]2)o1 [Compound 49, 1-(5-((1H-benzo[d]imidazol-2-yl)thio)furan-2-yl)-N,N-dimethylmethanamine]	59.4 µM	–
CC(C)N1C(=O)S/C(=C\c2ccc(Sc3nc4ccccc4n3C)o2)C1=O [Compound 18, (Z)-3-isopropyl-5-((5-((1-methyl-1H-benzo[d]imidazol-2-yl)thio)furan-2-yl)methylene)thiazolidine-2,4-dione]	1.67 µM	–
O=C(O)CN1C(=O)S/C(=C\c2ccc(Sc3nc4ccccc4[nH]3)o2)C1=O [Compound 13, (Z)-2-(5-((5-((1H-benzo[d]imidazol-2-yl)thio)furan-2-yl)methylene)-2,4-dioxothiazolidin-3-yl)acetic acid]	–	c-Myc reporter assay IC50: inactive
CC(C)N1C(=O)S/C(=C\c2ccc(Sc3nc4ccc(NC(=O)c5ccccc5)cc4[nH]3)o2)C1=O [Compound 61, (Z)—N-(2-((5-((3-isopropyl-2,4-dioxothiazolidin-5-ylidene)methyl)furan-2-yl)thio)-1H-benzo[d]imidazol-6-yl)benzamide]	0.4 µM	–
CC(=O)Nc1ccc2nc(Sc3ccc(/C=C4\SC(=O)N(C(C)C)C4=O)o3)[nH]c2c1 [Compound 62, (Z)—N-(2-((5-((3-isopropyl-2,4-dioxothiazolidin-5-ylidene)methyl)furan-2-yl)thio)-1H-benzo[d]imidazol-6-yl)acetamide]	0.93 µM	–
CC(C)NCc1ccc(Sc2nc3ccccc3[nH]2)o1 [Compound 46]	57.5 µM	–
CCNC(=O)NCCCN1C(=O)S/C(=C\c2ccc(Sc3nc4ccccc4[nH]3)o2)C1=O [Compound 21]	6.77 µM	–
CN1C(=O)C(=Cc2ccc(Sc3nc4ccccc4[nH]3)o2)C(=O)N(C)C1=O [Compound 53, 5-((5-((1H-benzo[d]imidazol-2-yl)thio)furan-2-yl)methylene)-1,3-dimethylpyrimidine-2,4,6(1H,3H,5H)-trione]	–	IC50 (Homo sapiens, HEK-293T): 26.8 µM
O=C1NC(=O)C(=Cc2ccc(Sc3nc4ccccc4[nH]3)o2)C(=O)N1 [Compound 54, 5-((5-((1H-benzo[d]imidazol-2-yl)thio)furan-2-yl)methylene)pyrimidine-2,4,6(1H,3H,5H)-trione]	–	c-Myc reporter assay IC50: non active
CC(C)N1C(=O)S/C(=C\c2ccc(Sc3nc4ccc(N)cc4[nH]3)o2)C1=O [Compound 60, (Z)-5-((5-((6-amino-1H-benzo[d]imidazol-2-yl)thio)furan-2-yl)methylene)-3-isopropylthiazolidine-2,4-dione]	4.56 µM	–
COC(=O)C(C)N1C(=O)S/C(=C\c2ccc(Sc3nc4ccccc4[nH]3)o2)C1=O (stereo not drawn) [Compound 32]	6.24 µM	–
COC(=O)CNCc1ccc(Sc2nc3ccccc3[nH]2)o1 [Compound 50, Methyl 2-(((5-((1H-benzo[d]imidazol-2-yl)thio)furan-2-yl)methyl)amino)acetate]	75.9 µM	–
CC(C)N1C(=O)S/C(=C\c2ccc(Sc3nc4ccccc4[nH]3)s2)C1=O [Compound 11, (Z)-5-((5-((1H-benzo[d]imidazol-2-yl)thio)thiophen-2-yl)methylene)-3-isopropylthiazolidine-2,4-dione]	–	IC50 (Homo sapiens, HEK-293T): 1.62 µM
O=C1CSC(=O)N1Cc1ccc(Sc2nc3ccccc3[nH]2)o1 [Compound 67, 3-((5-((1H-benzo[d]imidazol-2-yl)thio)furan-2-yl)methyl)thiazolidine-2,4-dione]	30 µM	–
CC(=O)c1ccc2nc(Sc3ccc(/C=C4\SC(=O)N(C(C)C)C4=O)o3)[nH]c2c1 [Compound 58, (Z)-5-((5-((6-acetyl-H-benzo[d]imidazol-2-yl)thio)furan-2-yl)methylene)-3-isopropylthiazolidine-2,4-dione]	0.26 µM	–
